Experimental data published in ChEMBL document CHEMBL4414672, “Synthesis of certain benzothieno[3,2-d]pyrimidine derivatives as a selective SIRT2 inhibitors” (Eur J Med Chem, 2020).
Values after ≈ are worked out from the molar mass of the structure shown.

Columns and labels:
[1] = tested on: SK-MEL-5; test: Growth inhibition of human SK-MEL-5 cells at 10^-5 M incubated for 48 hrs by sulforhodamine B assay; assay type: functional; conditions: SK-MEL-5, 48 h, read-out: GI
[2] = tested on: U-251; test: Growth inhibition of human U251 cells at 10^-5 M incubated for 48 hrs by sulforhodamine B assay; assay type: functional; conditions: U-251, 48 h, read-out: GI
[3] = tested on: NCI/ADR-RES; test: Growth inhibition of human NCI/ADR-RES cells at 10^-5 M incubated for 48 hrs by sulforhodamine B assay; assay type: functional; conditions: read-out: GI
[4] = tested on: T47D; test: Growth inhibition of human T47D cells at 10^-5 M incubated for 48 hrs by sulforhodamine B assay; assay type: functional; conditions: read-out: GI
[5] = tested on: A549; test: Growth inhibition of human A549/ATCC cells at 10^-5 M incubated for 48 hrs by sulforhodamine B assay; assay type: functional; conditions: A549, 48 h, read-out: GI
[6] = tested on: CAKI-1; test: Growth inhibition of human Caki1 cells at 10^-5 M incubated for 48 hrs by sulforhodamine B assay; assay type: functional; conditions: CAKI-1, 48 h, read-out: GI
[7] = tested on: SR; test: Growth inhibition of human SR cells at 10^-5 M incubated for 48 hrs by sulforhodamine B assay; assay type: functional; conditions: read-out: GI
[8] = tested on: COLO 205; test: Growth inhibition of human COLO205 cells at 10^-5 M incubated for 48 hrs by sulforhodamine B assay; assay type: functional; conditions: COLO 205, 48 h, read-out: GI
[9] = tested on: MDA-MB-468; test: Growth inhibition of human MDA-MB-468 cells at 10^-5 M incubated for 48 hrs by sulforhodamine B assay; assay type: functional; conditions: MDA-MB-468, 48 h, read-out: GI
[10] = tested on: OVCAR-3; test: Growth inhibition of human OVCAR3 cells at 10^-5 M incubated for 48 hrs by sulforhodamine B assay; assay type: functional; conditions: OVCAR-3, 48 h, read-out: GI
[11] = tested on: HCC 2998; test: Growth inhibition of human HCC2998 cells at 10^-5 M incubated for 48 hrs by sulforhodamine B assay; assay type: functional; conditions: HCC 2998, 48 h, read-out: GI
[12] = tested on: SW-620; test: Growth inhibition of human SW620 cells at 10^-5 M incubated for 48 hrs by sulforhodamine B assay; assay type: functional; conditions: SW-620, 48 h, read-out: GI
[13] = biological target: T1, NAD-dependent protein deacetylase sirtuin-2 (Homo sapiens, UniProt Q8IXJ6); test: Inhibition of SIRT2 (unknown origin) using fluorogenic substrate assessed as deacetylase activity incubated for 45 mins by fluorescence assay
T1 sequence (Q8IXJ6 whole entry): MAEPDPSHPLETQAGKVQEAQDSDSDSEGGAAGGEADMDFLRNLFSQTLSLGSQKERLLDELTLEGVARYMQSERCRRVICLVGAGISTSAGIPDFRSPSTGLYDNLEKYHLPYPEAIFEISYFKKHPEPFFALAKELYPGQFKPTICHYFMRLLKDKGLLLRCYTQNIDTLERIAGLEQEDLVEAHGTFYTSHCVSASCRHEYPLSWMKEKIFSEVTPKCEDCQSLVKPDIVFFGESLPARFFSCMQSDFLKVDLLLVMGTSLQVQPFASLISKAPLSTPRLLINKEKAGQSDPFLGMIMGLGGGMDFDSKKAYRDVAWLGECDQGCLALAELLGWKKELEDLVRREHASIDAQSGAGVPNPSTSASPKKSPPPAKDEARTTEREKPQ

[14] = tested on: UO-31; test: Cytotoxicity against human UO31 cells assessed as reduction in cell viability after 24 hrs by MTT assay; assay type: functional, cell-based; conditions: UO-31, 24 h
[15] = tested on: SNB-75; test: Growth inhibition of human SNB75 cells at 10^-5 M incubated for 48 hrs by sulforhodamine B assay; assay type: functional; conditions: SNB-75, 48 h, read-out: GI
[16] = tested on: MCF7; test: Cytotoxicity against human MCF7 cells assessed as reduction in cell viability after 24 hrs by MTT assay; assay type: functional, cell-based; conditions: MCF7, 24 h
[17] = tested on: MDA-MB-231; test: Growth inhibition of human MDA-MB-231 cells at 10^-5 M incubated for 48 hrs by sulforhodamine B assay; assay type: functional; conditions: MDA-MB-231, 48 h, read-out: GI
[18] = tested on: NCI-H226; test: Growth inhibition of human NCI-H226 cells at 10^-5 M incubated for 48 hrs by sulforhodamine B assay; assay type: functional; conditions: NCI-H226, 48 h, read-out: GI
[19] = tested on: NCI-H322M; test: Growth inhibition of human NCI-H322M cells at 10^-5 M incubated for 48 hrs by sulforhodamine B assay; assay type: functional; conditions: read-out: GI
[20] = tested on: MOLT-4; test: Growth inhibition of human MOLT4 cells at 10^-5 M incubated for 48 hrs by sulforhodamine B assay; assay type: functional; conditions: MOLT-4, 48 h, read-out: GI
[21] = tested on: RXF 393; test: Growth inhibition of human RXF393 cells at 10^-5 M incubated for 48 hrs by sulforhodamine B assay; assay type: functional; conditions: RXF 393, 48 h, read-out: GI
[22] = tested on: HCT-15; test: Growth inhibition of human HCT15 cells at 10^-5 M incubated for 48 hrs by sulforhodamine B assay; assay type: functional; conditions: HCT-15, 48 h, read-out: GI
[23] = tested on: BT-549; test: Growth inhibition of human BT549 cells at 10^-5 M incubated for 48 hrs by sulforhodamine B assay; assay type: functional; conditions: BT-549, 48 h, read-out: GI
[24] = biological target: T1, NAD-dependent protein deacetylase sirtuin-2; test: (§1) Inhibition of SIRT2 (unknown origin) assessed as increase in alpha-tubulin acetylation after 2 hrs by alpha-tubulin acetyl-K40 assay
[25] = biological target: NAD-dependent protein deacetylase sirtuin-2 (Homo sapiens) (UniProt Q8IXJ6); test: as §1
[26] = biological target: NAD-dependent protein deacetylase sirtuin-1 (Homo sapiens, UniProt Q96EB6); test: Inhibition of SIRT1 (unknown origin) using fluorogenic substrate assessed as deacetylase activity incubated for 45 mins by fluorescence assay
[27] = biological target: NAD-dependent protein deacetylase sirtuin-3, mitochondrial (Homo sapiens, UniProt Q9NTG7); test: Inhibition of SIRT3 (unknown origin) using fluorogenic substrate assessed as deacetylase activity incubated for 45 mins by fluorescence assay
Sequence of NAD-dependent protein deacetylase sirtuin-3, mitochondrial (Q9NTG7 whole entry): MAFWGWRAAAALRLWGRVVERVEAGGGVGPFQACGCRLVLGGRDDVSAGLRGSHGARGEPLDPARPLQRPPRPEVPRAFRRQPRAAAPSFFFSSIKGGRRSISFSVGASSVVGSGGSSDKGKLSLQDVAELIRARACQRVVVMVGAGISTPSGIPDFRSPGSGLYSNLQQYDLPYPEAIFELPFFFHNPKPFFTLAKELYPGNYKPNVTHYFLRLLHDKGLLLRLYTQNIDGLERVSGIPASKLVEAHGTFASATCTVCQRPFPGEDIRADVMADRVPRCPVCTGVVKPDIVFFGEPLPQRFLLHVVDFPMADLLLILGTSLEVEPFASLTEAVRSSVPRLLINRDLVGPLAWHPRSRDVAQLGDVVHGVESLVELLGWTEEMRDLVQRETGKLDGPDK

Sequence of NAD-dependent protein deacetylase sirtuin-1 (Q96EB6 whole entry): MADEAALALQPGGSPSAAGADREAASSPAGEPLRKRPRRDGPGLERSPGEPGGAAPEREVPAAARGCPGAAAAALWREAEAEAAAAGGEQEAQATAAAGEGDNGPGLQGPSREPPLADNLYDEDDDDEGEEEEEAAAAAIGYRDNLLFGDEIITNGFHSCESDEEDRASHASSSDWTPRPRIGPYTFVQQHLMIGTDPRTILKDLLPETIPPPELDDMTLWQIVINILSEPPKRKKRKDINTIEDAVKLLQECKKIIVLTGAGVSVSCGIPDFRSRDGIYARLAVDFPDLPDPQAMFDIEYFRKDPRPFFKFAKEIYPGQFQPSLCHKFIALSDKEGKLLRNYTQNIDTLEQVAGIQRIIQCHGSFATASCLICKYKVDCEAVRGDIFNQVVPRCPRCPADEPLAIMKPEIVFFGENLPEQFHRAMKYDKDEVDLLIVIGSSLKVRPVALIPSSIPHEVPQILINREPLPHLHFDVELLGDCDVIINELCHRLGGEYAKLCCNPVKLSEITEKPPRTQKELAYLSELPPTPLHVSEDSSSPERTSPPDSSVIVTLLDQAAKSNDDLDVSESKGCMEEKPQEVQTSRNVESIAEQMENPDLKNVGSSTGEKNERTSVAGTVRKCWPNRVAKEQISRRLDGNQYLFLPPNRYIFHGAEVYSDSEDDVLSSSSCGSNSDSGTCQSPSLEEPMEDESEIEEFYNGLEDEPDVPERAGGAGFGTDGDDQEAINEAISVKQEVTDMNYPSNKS

| SMILES | inhibition of growth at 10 µM [1] | inhibition of growth at 10 µM [2] | inhibition of growth at 10 µM [3] | inhibition of growth at 10 µM [4] | inhibition of growth at 10 µM [5] | inhibition of growth at 10 µM [6] | inhibition of growth at 10 µM [7] | inhibition of growth at 10 µM [8] | inhibition of growth at 10 µM [9] | inhibition of growth at 10 µM [10] | inhibition of growth at 10 µM [11] | inhibition of growth at 10 µM [12] | IC50 [14] | inhibition of growth at 10 µM [15] | IC50 [16] | inhibition of growth at 10 µM [17] | inhibition of growth at 10 µM [18] | inhibition of growth at 10 µM [19] | inhibition of growth at 10 µM [20] | inhibition of growth at 10 µM [21] | further results |
| --- | --- | --- | --- | --- | --- | --- | --- | --- | --- | --- | --- | --- | --- | --- | --- | --- | --- | --- | --- | --- | --- |
| NC(=O)CSC1=Nc2c(sc3ccc(Cl)cc23)C(c2cccc([N+](=O)[O-])c2)N1 (stereo not given) | 4.8% | -1.2% | -4.88% | 23.9% | -4.42% | 19.2% | 4.41% | -5.21% | 2.9% | -4.8% | -5.21% | -4.82% | 46.8 µg/mL (≈ 108 µM) | 5.27% | 5.06 µg/mL (≈ 11.7 µM) | 7.36% | 10.4% | 3.97% | 3.86% | -12.1% | IC50 [13]: 17 µM; inhibition of growth at 10 µM [22]: -3.38%; inhibition of growth at 10 µM [23]: -8.76% |
| O=C1SC2=Nc3c(sc4ccc(Cl)cc34)C(c3ccc4ccccc4c3)N2C1=O (stereo not given) | 5.6% | -1.96% | 4.45% | 24.5% | 1.04% | 30.1% | 26.4% | -2.01% | 11.2% | 9.4% | -27.7% | 4.8% | 46.7 µg/mL (≈ 107 µM) | 5.78% | 23.3 µg/mL (≈ 53.6 µM) | 18.1% | 24% | 13.9% | 11.9% | 3.64% | inhibition of growth at 10 µM [22]: 7.44%; inhibition of growth at 10 µM [23]: -19.9% |
| Cc1cc(C)n(C2=Nc3c(sc4ccc(Cl)cc34)C(c3cccc([N+](=O)[O-])c3)N2)n1 (stereo not given) | 4.68% | -3.95% | -2.52% | 13.2% | 3.8% | 26.4% | -4.84% | -5.86% | 8.16% | -2.22% | -5.86% | -3.97% | 9.62 µg/mL (≈ 22 µM) | 7.66% | 1.67 µg/mL (≈ 3.81 µM) | 18.8% | 17.1% | 0.71% | 16.5% | -9.71% | IC50 [13]: 19.3 µM; inhibition of growth at 10 µM [22]: -0.63%; inhibition of growth at 10 µM [23]: -17.8% |
| O=[N+]([O-])c1cccc(C2NC(N3CCOCC3)=Nc3c2sc2ccc(Cl)cc32)c1 (stereo not given) | 4.38% | 1.11% | -3.21% | 21.6% | -1.35% | 27.7% | 1.5% | -6.02% | -5.77% | -0.17% | -6.02% | -1.57% | 3.11 µg/mL (≈ 7.25 µM) | 10.7% | 10.4 µg/mL (≈ 24.3 µM) | 18.3% | 14.4% | 6.39% | 1.35% | -8.09% | inhibition of growth at 10 µM [22]: -7.82%; inhibition of growth at 10 µM [23]: -6.2% |
| O=[N+]([O-])c1cccc(C2c3sc4ccc(Cl)cc4c3N=C3NN=C(c4cccc(F)c4)N32)c1 (stereo not given) | 4.01% | -1.33% | -2.63% | 18.1% | 2.2% | 21.9% | 1.04% | -6.34% | -20.8% | -1.54% | -6.34% | -3.74% | 10.5 µg/mL (≈ 21.9 µM) | 6.3% | 0.23 µg/mL (≈ 0.481 µM) | 13.4% | 14% | 2.83% | 13% | -16.7% | IC50 [13]: 8.47 µM; inhibition of growth at 10 µM [22]: 0.97%; inhibition of growth at 10 µM [23]: -8.29% |
| S=C1Nc2c(sc3ccc(Cl)cc23)C(c2ccc3ccccc3c2)N1 (stereo not given) | 5.24% | 7.46% | 4.45% | 22.5% | 7.47% | 27.5% | 19.4% | 0.1% | 4.47% | 3.25% | -16.7% | 3.99% | 7.91 µg/mL (≈ 20.8 µM) | 26% | 19.6 µg/mL (≈ 51.6 µM) | 23% | 20.6% | 13.9% | 7.43% | -0.71% | inhibition of growth at 10 µM [22]: 2.67%; inhibition of growth at 10 µM [23]: -9.88% |
| O=C1CSC2=Nc3c(sc4ccc(Cl)cc34)C(c3ccc4ccccc4c3)N12 (stereo not given) | 2.92% | -7.94% | -1.46% | 15.7% | 4.93% | 27.5% | 15.4% | -3.73% | 2.47% | -0.24% | -30.1% | -3.91% | 12.4 µg/mL (≈ 29.5 µM) | 16.8% | 2.34 µg/mL (≈ 5.56 µM) | 19.7% | 16.7% | 6.48% | 13.7% | -5.09% | IC50 [24]: 76.1 µM; inhibition [25]: Dose-dependent effect; IC50 [26]: 4.3 µM; IC50 [13]: 4.99 µM; IC50 [27]: 48.7 µM; inhibition of growth at 10 µM [22]: 1.72%; inhibition of growth at 10 µM [23]: -8.05% |
| O=[N+]([O-])c1cccc(C2c3sc4ccc(Cl)cc4c3N=C3NN=CN32)c1 (stereo not given) | 5.85% | -0.13% | 6.44% | -3.72% | -0.61% | -3.12% | 4.93% | -6.88% | -15.5% | -0.5% | -6.88% | 5.16% | 26.2 µg/mL (≈ 68.4 µM) | -4.8% | 9.8 µg/mL (≈ 25.5 µM) | 5.59% | 21.7% | 5.8% | 0.47% | 1.71% | IC50 [13]: 6.64 µM; inhibition of growth at 10 µM [22]: -1.1%; inhibition of growth at 10 µM [23]: 16.9% |
